Data taken from ChEMBL document CHEMBL4342430, “An Agonist Radioligand for the Proinflammatory Lipid-Activated G Protein-Coupled Receptor GPR84 Providing Structural Insights” (J Med Chem, 2020).
Values belong to the compound of their own block, whether it stands above or below them. Activity calls are given as the source filed them. The calls are words filed in the database; no cut-off is given here.

Key:
[1] = biological target: T1, G-protein coupled receptor 84 (Homo sapiens, UniProt Q9NQS5); assay: Displacement of [3H]PSB-1584 from recombinant human GPR84 expressed in CHO cell membranes co-expressing beta-arrestin2 measured after 6 hrs by scintillation counting method
T1 sequence (Q9NQS5 whole entry): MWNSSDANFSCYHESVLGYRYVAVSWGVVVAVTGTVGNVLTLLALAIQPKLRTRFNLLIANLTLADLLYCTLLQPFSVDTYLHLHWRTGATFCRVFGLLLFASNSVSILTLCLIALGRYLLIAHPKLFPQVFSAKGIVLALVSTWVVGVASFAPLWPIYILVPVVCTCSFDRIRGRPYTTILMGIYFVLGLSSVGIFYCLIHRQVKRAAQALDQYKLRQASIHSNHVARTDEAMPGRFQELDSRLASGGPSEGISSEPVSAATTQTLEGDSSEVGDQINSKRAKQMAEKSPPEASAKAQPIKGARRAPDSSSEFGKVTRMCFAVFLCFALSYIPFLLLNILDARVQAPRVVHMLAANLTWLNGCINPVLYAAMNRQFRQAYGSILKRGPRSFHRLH

[2] = biological target: T1, G-protein coupled receptor 84; assay: Displacement of [3H]PSB-1584 from recombinant human GPR84 expressed in CHO cell membranes co-expressing beta-arrestin2 at 100 uM measured after 6 hrs by scintillation counting method relative to control
[3] = biological target: T1, G-protein coupled receptor 84; assay: Agonist activity at recombinant human GPR84 expressed in CHO cell membranes co-expressing beta-arrestin2 assessed as beta-arrestin 2 recruitment measured after 90 mins by beta-galactosidase based PathHunter assay
[4] = biological target: T1, G-protein coupled receptor 84; assay: Agonist activity at recombinant human GPR84 expressed in CHO cell membranes co-expressing beta-arrestin2 assessed as inhibition of forskolin-stimulated [3H]cAMP accumulation preincubated for 5 mins followed by forskolin stimulation and measured after 15 mins by radioactive assay; assay type: functional, cell-based
[5] = biological target: T1, G-protein coupled receptor 84; assay: Positive allosteric modulation of recombinant human GPR84 expressed in CHO cell membranes co-expressing beta-arrestin2 assessed as increase in [3H]PSB-1584 binding measured after 6 hrs by scintillation counting method relative to control
[6] = biological target: T1, G-protein coupled receptor 84; assay: Positive allosteric modulation of recombinant human GPR84 expressed in CHO cell membranes co-expressing beta-arrestin2 assessed as increase in [3H]PSB-1584 binding measured after 6 hrs by scintillation counting method
[7] = biological target: T1, G-protein coupled receptor 84; assay: Selectivity ratio of EC50 for agonist activity at recombinant human GPR84 expressed in CHO cell membranes co-expressing beta-arrestin2 assessed as inhibition of forskolin-stimulated [3H]cAMP accumulation to Ki for displacement of [3H]PSB-1584 from recombinant human GPR84 expressed in CHO cell membranes co-expressing beta-arrestin2; assay type: functional
Rattus norvegicus [8] = organism: Rattus norvegicus; assay: Displacement of [3H]PSB-1584 from GPR84 in rat liver membranes measured after 6 hrs by scintillation counting method; assay type: cell membranes
[9] = biological target: G-protein coupled receptor 84 (Mus musculus) (UniProt Q8CIM5); assay: Displacement of [3H]PSB-1584 from GPR84 in mouse liver membranes measured after 6 hrs by scintillation counting method; assay type: cell membranes
Sequence of G-protein coupled receptor 84 (Mus musculus) (Q8CIM5 whole entry): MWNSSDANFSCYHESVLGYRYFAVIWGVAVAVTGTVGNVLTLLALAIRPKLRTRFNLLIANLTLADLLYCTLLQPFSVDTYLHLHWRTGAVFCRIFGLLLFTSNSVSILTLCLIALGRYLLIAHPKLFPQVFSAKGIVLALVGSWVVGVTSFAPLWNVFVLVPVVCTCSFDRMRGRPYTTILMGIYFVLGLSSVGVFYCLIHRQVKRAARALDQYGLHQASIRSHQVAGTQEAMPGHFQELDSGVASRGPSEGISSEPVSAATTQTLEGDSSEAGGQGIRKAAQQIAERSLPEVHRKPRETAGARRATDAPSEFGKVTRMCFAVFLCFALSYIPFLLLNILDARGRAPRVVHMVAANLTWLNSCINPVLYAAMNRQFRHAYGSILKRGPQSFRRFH

Rattus norvegicus [10] = organism: Rattus norvegicus; assay: Displacement of [3H]PSB-1584 from GPR84 in rat brain striatum membranes measured after 6 hrs by scintillation counting method; assay type: cell membranes
Rattus norvegicus [11] = organism: Rattus norvegicus; assay: Displacement of [3H]PSB-1584 from GPR84 in rat brain cortex membranes measured after 6 hrs by scintillation counting method; assay type: cell membranes

SMILES: CCCCCCSc1nc(O)cc(CCC)n1
inhibition [2]: 51%
Ki [1]: ≥ 100000 nM

SMILES: CCCCCCNc1[nH]c(=O)[nH]c(=O)c1Br
Ki [1]: 225 nM

SMILES: CCCCCCCCCCC[C@@H](O)CC(=O)O
EC50 [3]: 452 nM
Ki [1]: 472 nM
EC50 [4]: 1750 nM

SMILES: CCCCCCSc1nc(C)cc(O)n1
Ki [1]: 3630 nM

SMILES: Fc1cc2c(Cc3c[nH]c4cc(Cl)c(F)cc34)c[nH]c2cc1Cl
%max [5]: 36%
EC50 [6]: 129 nM
Selectivity ratio [7]: 84

SMILES: O=C(O)CCCCCCCCCCCO
EC50 [3]: > 100000 nM
inhibition [2]: 5%
Ki [1]: > 10000 nM
EC50 [4]: > 100000 nM

SMILES: Fc1ccc2[nH]cc(Cc3c[nH]c4ccc(F)c(F)c34)c2c1F
%max [5]: 67%
EC50 [6]: 83.6 nM

SMILES: CCCCCCNC(=O)c1cc(=O)[nH]c(=O)[nH]1
Ki [1]: 469 nM

SMILES: Clc1ccc2[nH]cc(Cc3c[nH]c4ccc(Cl)cc34)c2c1
%max [5]: 90%
EC50 [6]: 250 nM
Selectivity ratio [7]: 20

SMILES: CCCCCCCCNC(=O)c1cc(=O)[nH]c(=O)[nH]1
inhibition [2]: 12%
Ki [1]: > 10000 nM

SMILES: Fc1cccc2[nH]cc(Cc3c[nH]c4cccc(F)c34)c12
%max [5]: 56%
EC50 [6]: 1520 nM

SMILES: COc1ccc2[nH]cc(Cc3c[nH]c4ccccc34)c2c1
%max [5]: 53%
EC50 [6]: 495 nM

SMILES: O=c1cc(NCCc2ccc(Br)cc2)[nH]c(=O)[nH]1
inhibition (Rattus norvegicus [8]): Active
inhibition [9]: Active
inhibition (Rattus norvegicus [10]): Active
inhibition (Rattus norvegicus [11]): Active

SMILES: Fc1cc(F)c2[nH]cc(Cc3c[nH]c4c(F)cc(F)cc34)c2c1
%max [5]: 87%

SMILES: c1ccc2c(Cc3c[nH]c4ccccc34)c[nH]c2c1
%max [5]: < 100%
inhibition [1]: inactive
Activity [6]: Dose-dependent effect

SMILES: CCCCCCCCCCCCC(=O)O [TRIDECANOATE]
EC50 [3]: 1700 nM
Ki [1]: 1930 nM
EC50 [4]: 9610 nM

SMILES: Clc1ccc2c(Cc3c[nH]c4cc(Cl)ccc34)c[nH]c2c1
IC50 [1]: 43700 nM

SMILES: CCCCCCSc1nc(O)cc(C(=O)OC)n1
inhibition [2]: 9%
Ki [1]: > 10000 nM

SMILES: CCCCCCCCCCCC(=O)O [DODECANOATE]
EC50 [3]: 3490 nM
Ki [1]: 2170 nM

SMILES: Clc1cccc2[nH]cc(Cc3c[nH]c4cccc(Cl)c34)c12
%max [5]: 94%
EC50 [6]: 175 nM

SMILES: CCCCOC(=O)c1cc(O)nc(O)n1
inhibition [2]: -3%
Ki [1]: > 10000 nM

SMILES: O=c1cc(NCCCCCCCO)[nH]c(=O)[nH]1
Ki [1]: 267 nM

SMILES: CCCCCNC(=O)c1cc(=O)[nH]c(=O)[nH]1
Ki [1]: 1560 nM

SMILES: O=c1cc(NCCc2c[nH]c3ccccc23)[nH]c(=O)[nH]1
Ki [1]: 497 nM

SMILES: O=C(NCCCc1ccccc1)c1cc(=O)[nH]c(=O)[nH]1
Ki [1]: 1590 nM

SMILES: CCCCCCOC(=O)c1cc(=O)[nH]c(=O)[nH]1
Ki [1]: 1210 nM

SMILES: CCC(c1c[nH]c2ccccc12)c1c[nH]c2ccccc12
IC50 [1]: 46300 nM

SMILES: CCCCCCCCCCCC(O)CC(=O)O (racemic)
EC50 [3]: 432 nM
Ki [1]: 511 nM
EC50 [4]: 1570 nM

SMILES: COc1ccc2[nH]cc(Cc3c[nH]c4ccc(OC)cc34)c2c1
%max [5]: 46%
EC50 [6]: 103 nM

SMILES: CCCCCCC(O)C(=O)O (racemic)
EC50 [3]: > 100000 nM
inhibition [2]: 50%
Ki [1]: 100000 nM
EC50 [4]: > 100000 nM

SMILES: CCCCCCCCCNC(=O)c1cc(=O)[nH]c(=O)[nH]1
inhibition [2]: 26%
Ki [1]: > 10000 nM

SMILES: Brc1ccc2[nH]cc(Cc3c[nH]c4ccc(Br)cc34)c2c1
%max [5]: 69%
EC50 [6]: 59.1 nM
Selectivity ratio [7]: 58

SMILES: Fc1cc2[nH]cc(Cc3c[nH]c4cc(F)c(F)cc34)c2cc1F
%max [5]: 55%
EC50 [6]: 52.4 nM

SMILES: CCCC(c1c[nH]c2ccccc12)c1c[nH]c2ccccc12
IC50 [1]: 22400 nM

SMILES: O=C(c1c[nH]c2ccccc12)c1c[nH]c2ccccc12
%max [5]: 59%
EC50 [6]: 1930 nM

SMILES: Fc1ccc2[nH]cc(Cc3c[nH]c4ccccc34)c2c1
%max [5]: 55%

SMILES: CCCCCCCCCCCCC(O)C(=O)O (racemic)
EC50 [3]: 4360 nM
Ki [1]: 318 nM
EC50 [4]: 3860 nM

SMILES: Fc1ccc2[nH]cc(Cc3c[nH]c4ccc(F)cc34)c2c1
%max [5]: 125%
EC50 [6]: 199 nM

SMILES: CCCCCCSc1nccc(O)n1
Ki [1]: 3470 nM

SMILES: Fc1ccc2c(Cc3c[nH]c4cc(F)ccc34)c[nH]c2c1
%max [5]: 57%
EC50 [6]: 302 nM

SMILES: CCCCCCCC(=O)O [OCTANOIC ACID]
EC50 [3]: > 100000 nM
Ki [1]: 19600 nM
EC50 [4]: > 100000 nM

SMILES: CCCCCCCC(O)CC(=O)O (racemic)
EC50 [3]: 4050 nM
Ki [1]: 3310 nM
EC50 [4]: 31800 nM

SMILES: Fc1cccc2c(Cc3c[nH]c4c(F)cccc34)c[nH]c12
%max [5]: 153%
EC50 [6]: 61.8 nM

SMILES: Cn1cc(Cc2cn(C)c3ccccc23)c2ccccc21
IC50 [1]: 14000 nM

Continued, values first:

Ki [1]: 3.17 nM
SMILES: O=c1cc(O)nc(SCCc2ccc(Br)cc2)[nH]1

EC50 [3]: 3250 nM
Ki [1]: 110 nM
SMILES: CCCCCCCCCC(O)CC(=O)O (racemic)

Ki [1]: 3.12 nM
SMILES: O=c1cc(NCCOc2ccccc2)[nH]c(=O)[nH]1

Ki [1]: 35.6 nM
SMILES: O=c1cc(NCCc2ccccc2F)[nH]c(=O)[nH]1

Ki [1]: 0.866 nM
SMILES: CCCCCCCNc1cc(=O)[nH]c(=O)[nH]1

Ki [1]: 1.25 nM
SMILES: Cc1ccc(CCNc2cc(=O)[nH]c(=O)[nH]2)cc1

Ki [1]: 0.726 nM
SMILES: CCCCCCCCCCNc1cc(O)nc(O)n1

Ki [1]: 18.7 nM
SMILES: O=c1cc(N2CCC(Cc3ccccc3)CC2)[nH]c(=O)[nH]1

Ki [1]: 3.6 nM
SMILES: CCCCCCCCN(C)c1cc(=O)[nH]c(=O)[nH]1

Ki [1]: 0.58 nM
SMILES: Oc1cc(NCCCCc2ccccc2)nc(O)n1

Ki [1]: 37 nM
SMILES: CCCCCCCCNc1[nH]c(=O)[nH]c(=O)c1N=O

Ki [1]: 1.27 nM
SMILES: CC(C)(C)c1ccc(CCNc2cc(=O)[nH]c(=O)[nH]2)cc1

Ki [1]: 3.77 nM
SMILES: O=c1cc(O)nc(SCCc2ccc(F)cc2)[nH]1

Ki [1]: 3.99 nM
SMILES: O=c1cc(NCCc2cccc(Br)c2)[nH]c(=O)[nH]1

Ki [1]: 189 nM
SMILES: O=Nc1c(NCCCc2ccccc2)[nH]c(=O)[nH]c1=O

Ki [1]: 2.3 nM
SMILES: O=c1cc(NCCc2ccc(Cl)cc2Cl)[nH]c(=O)[nH]1

Ki [1]: 91 nM
SMILES: CCCCCNc1cc(=O)[nH]c(=O)[nH]1

Ki [1]: 58.6 nM
SMILES: CCCCCCCNc1[nH]c(=O)[nH]c(=O)c1N=O

Ki [1]: 2.1 nM
SMILES: O=c1cc(NCCCOc2ccccc2)[nH]c(=O)[nH]1

Ki [1]: 37.4 nM
SMILES: CCC/C=C/CNc1cc(=O)[nH]c(=O)[nH]1

Ki [1]: 0.7 nM
SMILES: Oc1cc(O)nc(SCCCc2ccccc2)n1

Ki [1]: 36.7 nM
SMILES: O=c1cc(O)nc(SCCc2ccc(C(F)(F)F)cc2)[nH]1

Ki [1]: 44.4 nM
SMILES: O=c1cc(N2CCN(c3ccc(Cl)cc3)CC2)[nH]c(=O)[nH]1

Ki [1]: 0.582 nM
SMILES: CCc1ccc(CCNc2cc(=O)[nH]c(=O)[nH]2)cc1

Ki [1]: 36 nM
SMILES: O=c1cc(NCCc2ccccc2Cl)[nH]c(=O)[nH]1

Ki [1]: 6.94 nM
SMILES: CCCCCCN(C)c1cc(=O)[nH]c(=O)[nH]1

Ki [1]: 49.4 nM
SMILES: O=c1cc(NCCc2cccs2)[nH]c(=O)[nH]1

Ki [1]: 14.7 nM
SMILES: O=c1cc(N2CCN(C3CCc4ccccc43)CC2)[nH]c(=O)[nH]1 (centres undefined)

Ki [1]: 62.7 nM
SMILES: O=c1cc(N2CCN(Cc3cccc4ccccc34)CC2)[nH]c(=O)[nH]1

Ki [1]: 10.8 nM
SMILES: Oc1cc(NCCc2ccccc2)nc(O)n1

Ki [1]: 11.4 nM
SMILES: O=c1cc(NCCc2ccc(F)cc2)[nH]c(=O)[nH]1

Ki [1]: 9.48 nM
SMILES: O=c1cc(NCCc2cccc(F)c2)[nH]c(=O)[nH]1

Ki [1]: 0.324 nM
SMILES: Oc1cc(O)nc(SCCCCc2ccccc2)n1

Ki [1]: 1.12 nM
SMILES: CCCCCCCCCNc1cc(=O)[nH]c(=O)[nH]1

Ki [1]: 34.7 nM
SMILES: CCCCCCCCNc1[nH]c(=O)[nH]c(=O)c1Br

Ki [1]: 2.63 nM
SMILES: O=c1cc(O)nc(SCCc2ccc(Cl)cc2)[nH]1

Ki [1]: 3.28 nM
SMILES: Cc1ccc(CCSc2nc(O)cc(=O)[nH]2)cc1

Ki [1]: 4.75 nM
SMILES: O=c1cc(NCCc2cccc(Cl)c2)[nH]c(=O)[nH]1

Ki [1]: 145 nM
SMILES: CCCCCCSc1nc(O)cc(C(=O)O)n1
